Measurements reported in the supplement of paper PMC10307832.

Assays:
Assay in all cases: relative viability (nuclei count vs DMSO), 5 days (fraction); higher = more cells survive
Bosutinib + OSI-027 = compound: COc1cc(Nc2c(C#N)cnc3cc(OCCCN4CCN(C)CC4)c(OC)cc23)c(Cl)cc1Cl [Bosutinib] + COc1cccc2cc(-c3nc([C@H]4CC[C@H](C(=O)O)CC4)n4ncnc(N)c34)[nH]c12 [OSI-027] (partner 0.5 µM)
Summary of the method: (§1)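 Relative viability equals treated-well nuclei counts divided by vehicle-well nuclei counts. Counts came from 4× images of lung cancer cell lines grown in 1536-well plates for 5 days after pin-tool dosing on the day after seeding. Dosing used one drug alone or a fixed anchor-drug dose plus five library-drug doses (not always all listed) in √10 steps, and values are medians of duplicate plates.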

Bosutinib + Trametinib = compound: COc1cc(Nc2c(C#N)cnc3cc(OCCCN4CCN(C)CC4)c(OC)cc23)c(Cl)cc1Cl [Bosutinib] + CC(=O)Nc1cccc(-n2c(=O)n(C3CC3)c(=O)c3c(Nc4ccc(I)cc4F)n(C)c(=O)c(C)c32)c1 [Trametinib] (partner 0.02 µM)
Summary of the method: as §1

Bosutinib + Luminespib = compound: COc1cc(Nc2c(C#N)cnc3cc(OCCCN4CCN(C)CC4)c(OC)cc23)c(Cl)cc1Cl [Bosutinib] + CCNC(=O)c1noc(-c2cc(C(C)C)c(O)cc2O)c1-c1ccc(CN2CCOCC2)cc1 [Luminespib] (partner 0.01 µM)
Summary of the method: as §1

Bosutinib + Vorinostat = compound: COc1cc(Nc2c(C#N)cnc3cc(OCCCN4CCN(C)CC4)c(OC)cc23)c(Cl)cc1Cl [Bosutinib] + O=C(CCCCCCC(=O)Nc1ccccc1)NO [Vorinostat] (partner 1 µM)
Summary of the method: as §1

Bosutinib + AZD7762 = compound: COc1cc(Nc2c(C#N)cnc3cc(OCCCN4CCN(C)CC4)c(OC)cc23)c(Cl)cc1Cl [Bosutinib] + NC(=O)Nc1cc(-c2cccc(F)c2)sc1C(=O)N[C@H]1CCCNC1 [AZD7762] (partner 0.2 µM)
Summary of the method: as §1

Cell Line	relative viability (Bosutinib + OSI-027; first compound 0.01 µM)	relative viability (Bosutinib + OSI-027; first compound 0.03162 µM)	relative viability (Bosutinib + OSI-027; first compound 0.1 µM)	relative viability (Bosutinib + OSI-027; first compound 1 µM)	relative viability (Bosutinib + Trametinib; first compound 0.01 µM)	relative viability (Bosutinib + Trametinib; first compound 0.03162 µM)	relative viability (Bosutinib + Trametinib; first compound 0.1 µM)	relative viability (Bosutinib + Trametinib; first compound 1 µM)	relative viability (Bosutinib + Luminespib; first compound 0.01 µM)	relative viability (Bosutinib + Luminespib; first compound 0.03162 µM)	relative viability (Bosutinib + Luminespib; first compound 0.1 µM)	relative viability (Bosutinib + Luminespib; first compound 1 µM)	relative viability (Bosutinib + Vorinostat; first compound 0.01 µM)	relative viability (Bosutinib + Vorinostat; first compound 0.03162 µM)	relative viability (Bosutinib + Vorinostat; first compound 0.1 µM)	relative viability (Bosutinib + Vorinostat; first compound 1 µM)	relative viability (Bosutinib + AZD7762; first compound 0.01 µM)	relative viability (Bosutinib + AZD7762; first compound 0.03162 µM)	relative viability (Bosutinib + AZD7762; first compound 0.1 µM)	relative viability (Bosutinib + AZD7762; first compound 1 µM)
201T	0.874	0.712	0.725	0.633	0.745	0.696	0.682	0.708	1.01	1.06	1.02	0.848	0.941	1.04	1	0.894	0.581	0.654	0.603	0.62
A-427	0.489	0.498	0.553	0.48	0.832	0.822	0.783	0.681	0.959	0.953	0.936	0.745	0.87	0.888	0.833	0.846	0.777	0.691	0.661	0.643
ABC-1	0.507	0.471	0.432	0.577	–	–	–	–	0.665	0.536	0.713	0.481	1.18	1.08	1.32	1.14	–	0.873	0.915	0.677
BEN	0.318	0.313	0.294	0.261	1.02	0.855	1.01	0.804	0.442	0.282	0.478	0.434	0.557	0.56	0.654	0.514	0.608	0.697	0.675	0.658
CAL-12T	0.735	0.637	0.803	0.565	0.28	0.366	0.334	0.234	0.516	0.587	0.335	0.204	0.756	0.773	0.664	0.528	0.576	0.529	0.596	0.515
COR-L23	0.754	0.732	0.75	0.778	0.706	0.548	0.568	0.541	0.613	0.685	0.76	0.56	0.535	0.553	0.431	0.561	–	–	–	–
COR-L 105	0.623	0.669	0.698	0.479	0.51	0.381	0.42	0.389	0.882	0.635	0.669	0.471	0.861	0.844	0.828	0.624	–	–	–	–
ChaGo-K-1	0.568	0.501	0.576	0.647	0.91	0.89	0.891	0.875	0.622	0.555	0.47	0.585	0.808	0.847	0.792	0.789	0.919	0.89	0.923	0.852
EKVX	0.79	0.764	0.654	0.55	0.306	0.334	0.364	0.228	0.799	0.914	0.834	0.633	0.645	0.73	0.747	0.629	0.441	0.751	0.735	0.656
EMC-BAC-2	0.388	0.383	0.385	0.37	0.848	0.887	0.857	0.773	1.22	1.07	1.17	1.04	0.427	0.713	0.831	0.396	1.18	1.11	1.13	1.09
EPLC-272H	0.262	0.34	0.312	0.342	0.297	0.281	0.281	0.281	0.149	0.932	0.649	0.278	0.601	0.464	0.477	0.321	0.225	0.244	0.18	0.232
H3255	0.558	0.653	0.642	0.412	–	0.578	0.63	0.422	1.11	0.912	0.866	0.784	–	0.832	0.858	0.768	0.846	1.02	0.949	0.517
HARA	0.497	0.512	0.503	0.344	0.943	0.745	0.633	0.57	0.885	0.549	0.682	0.741	0.544	0.654	0.754	0.592	0.304	0.308	0.297	0.644
HCC-15	0.736	0.622	0.648	0.734	0.396	0.457	0.383	0.328	0.39	0.346	0.315	0.18	0.759	0.893	0.893	0.772	1.23	1.12	1.23	1.23
HCC-44	0.525	0.673	0.594	0.571	1.03	1.04	1.09	1.05	1.18	1.07	1.08	0.627	1.08	1.11	1.06	1.16	1.02	1.01	1.01	1.04
HCC-78	0.361	0.362	0.353	0.358	0.84	0.712	0.768	0.725	–	–	–	–	0.469	0.362	0.444	0.356	0.655	0.788	0.781	0.584
HCC-366	0.981	0.898	0.821	0.405	0.319	0.226	0.326	0.215	–	–	–	–	0.433	0.378	0.375	0.286	0.34	0.253	0.205	0.073
HCC-827	0.784	0.828	0.872	0.574	0.55	0.6	0.594	0.18	0.709	0.589	0.525	0.174	0.811	0.903	1.04	0.75	0.219	0.21	0.189	0.168

Cell Line	relative viability (Bosutinib + OSI-027; first compound 0.01 µM)	relative viability (Bosutinib + OSI-027; first compound 0.03162 µM)	relative viability (Bosutinib + OSI-027; first compound 0.1 µM)	relative viability (Bosutinib + OSI-027; first compound 1 µM)	relative viability (Bosutinib + Trametinib; first compound 0.01 µM)	relative viability (Bosutinib + Trametinib; first compound 0.03162 µM)	relative viability (Bosutinib + Trametinib; first compound 0.1 µM)	relative viability (Bosutinib + Trametinib; first compound 1 µM)	relative viability (Bosutinib + Luminespib; first compound 0.01 µM)	relative viability (Bosutinib + Luminespib; first compound 0.03162 µM)	relative viability (Bosutinib + Luminespib; first compound 0.1 µM)	relative viability (Bosutinib + Luminespib; first compound 1 µM)	relative viability (Bosutinib + Vorinostat; first compound 0.01 µM)	relative viability (Bosutinib + Vorinostat; first compound 0.03162 µM)	relative viability (Bosutinib + Vorinostat; first compound 0.1 µM)	relative viability (Bosutinib + Vorinostat; first compound 1 µM)	relative viability (Bosutinib + AZD7762; first compound 0.01 µM)	relative viability (Bosutinib + AZD7762; first compound 0.03162 µM)	relative viability (Bosutinib + AZD7762; first compound 0.1 µM)	relative viability (Bosutinib + AZD7762; first compound 1 µM)
HOP-62	0.801	0.848	0.942	0.875	0.377	0.425	0.401	0.354	0.993	0.895	0.937	0.904	0.641	0.687	0.682	0.652	0.497	0.619	0.721	0.4
IA-LM	–	–	–	–	–	–	–	–	–	–	–	–	1.06	0.945	0.894	0.947	–	–	–	–
LC-2-ad	0.878	0.917	0.806	0.847	0.953	0.898	0.892	0.859	1.05	0.924	0.978	1.01	0.735	0.659	0.673	0.71	0.88	0.818	0.846	0.755
LCLC-97TM1	0.545	0.609	0.548	0.56	0.201	0.209	0.192	0.179	0.871	0.744	0.74	0.746	0.925	0.763	0.811	0.823	0.31	0.286	0.315	0.191
LCLC-103H	0.458	0.438	0.417	0.496	0.747	0.685	0.672	0.656	0.958	0.933	1.02	0.975	0.799	0.858	0.889	0.841	0.854	0.74	0.827	0.771
NCI-H520	0.293	0.257	0.235	0.196	0.703	0.633	0.6	0.417	0.199	0.236	0.223	0.214	0.729	0.735	0.724	0.708	–	–	–	–
NCI-H661	0.682	0.804	0.744	0.56	0.616	0.554	0.565	0.439	0.947	0.964	0.963	0.758	0.784	0.912	0.866	0.829	–	–	–	–
NCI-H1563	0.794	0.831	0.761	0.717	–	–	–	–	0.516	0.535	0.54	0.521	–	–	–	–	–	–	–	–
NCI-H1650	0.734	0.6	0.444	0.41	0.532	0.584	0.6	0.312	0.193	0.209	0.174	0.154	0.717	0.623	0.529	0.41	–	–	–	–
NCI-H1703	–	–	–	–	–	–	–	–	–	–	–	–	–	–	–	–	0.12	0.132	0.124	0.133
NCI-H1792	0.692	0.706	0.751	0.688	0.478	0.416	0.437	0.316	0.528	0.35	0.411	0.367	–	–	–	–	0.641	0.543	0.778	0.273
NCI-H2009	0.681	0.799	0.746	0.522	0.276	0.344	0.27	0.166	1.01	1.08	1.06	0.671	0.78	0.809	0.758	0.562	–	–	–	–
NCI-H2023	0.477	0.429	0.377	0.362	0.647	0.474	0.537	0.434	0.802	0.852	0.704	0.579	0.617	0.661	0.767	0.396	–	–	–	–
NCI-H2228	0.489	0.533	0.577	0.609	0.54	0.599	0.494	0.355	0.104	0.185	0.167	0.109	0.664	0.442	0.605	0.552	–	–	–	–
SK-LU-1	0.335	0.362	0.331	0.222	0.43	0.504	0.498	0.344	0.199	0.189	0.212	0.187	0.848	0.768	0.844	0.632	–	–	–	–
SK-MES-1	0.64	0.681	0.671	0.38	0.55	0.547	0.547	0.39	0.812	0.839	0.765	0.284	1.21	1.13	1.12	0.812	–	–	–	–
SW 1573	0.695	0.67	0.656	0.612	0.571	0.614	0.652	0.504	0.267	0.956	0.246	0.183	0.89	0.843	0.593	0.788	–	–	–	–
UMC-11	0.48	0.478	0.423	0.402	0.724	0.723	0.686	0.678	0.967	1.16	1.05	0.806	0.354	0.383	0.43	0.364	–	–	–	–
